Experimental data taken from patent US20200031778A1, “NOVEL 5-SUBSTITUTED IMIDAZOLYLMETHYL DERIVATIVES” (Bayer CropScience Aktiengesellschaft, priority 2016, published 2020).

Experiment: Log P by HPLC on reversed phase columns (EEC directive 79/831 Annex V.A8; methods [a], [b], [c])
Type: physicochemical
Procedure, shortened: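 Reversed-phase HPLC with LC-UV detection, 10→95% acetonitrile linear gradient; aqueous eluent 0.1% formic acid [a], 0.001 M ammonium acetate, neutral [b], or 0.1% phosphoric acid [c]. Calibrated against C3–C16 alkan-2-ones of known Log P by retention-time linear interpolation; multiple values within a method separated by "+".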

Compound	LogP
N#Cc1cncn1CC(O)(c1ccc(Cl)cc1F)C1CCCC1 (centres unmarked) [I-458]	3.12^[a]
CCCC(O)(Cn1cncc1C#N)c1ccc(F)cc1C(F)(F)F (centres unmarked) [I-459]	2.71^[a]
N#Cc1cncn1CC(O)(CC1CC1)c1ccc(Cl)cc1C(F)(F)F (centres unmarked) [I-460]	3.10^[a]
CCCC(O)(Cn1cncc1C#N)c1ccc(Cl)cc1C(F)(F)F (centres unmarked) [I-461]	3.05^[a]
CC(C)(C)C(O)(Cn1cncc1C#N)c1cc(F)c(F)c(F)c1 (centres unmarked) [I-462]	2.76^[a]
CC(C)(C)C(O)(Cn1cncc1C#N)c1cc(Cl)cc(Cl)c1 (centres unmarked) [I-463]	3.22^[a]
N#Cc1cncn1CC(O)(c1ccc(Cl)cc1C(F)(F)F)C1CC1 (centres unmarked) [I-464]	2.78^[a]
N#Cc1cncn1CC(O)(CC1CCCCC1)c1ccc(F)cc1Br (centres unmarked) [I-465]	3.78^[a]
N#Cc1cncn1CC(O)(CC1CCCCC1)c1ccc(F)cc1F (centres unmarked) [I-466]	3.44^[a]
N#Cc1cncn1CC(O)(c1ccc(F)cc1C(F)(F)F)C1CC1 (centres unmarked) [I-467]	2.47^[a]
N#Cc1cncn1CC(O)(CC1CCCCC1)c1ccc(Cl)cc1F (centres unmarked) [I-468]	3.80^[a]
N#Cc1cncn1CC(O)(c1cc(Br)cc(Br)c1)C1(F)CC1 (centres unmarked) [I-469]	2.82^[a]
N#Cc1cncn1CC(O)(c1ccc(F)c(Br)c1)C1(F)CC1 (centres unmarked) [I-470]	2.40^[a]
N#Cc1cncn1CC(O)(c1cc(F)c(F)c(Br)c1)C1(F)CC1 (centres unmarked) [I-471]	2.58^[a]
N#Cc1cncn1CC(O)(c1cc(Cl)cc(Cl)c1)C1(F)CC1 (centres unmarked) [I-472]	2.67^[a]
N#Cc1cncn1CC(O)(c1cc(F)cc(F)c1)C1(F)CC1 (centres unmarked) [I-473]	2.14^[a]
N#Cc1cncn1CC(O)(c1cc(F)cc(Cl)c1)C1(F)CC1 (centres unmarked) [I-474]	2.38^[a]
N#Cc1cncn1CC(O)(c1cc(F)c(Cl)c(F)c1)C1(F)CC1 (centres unmarked) [I-475]	2.54^[a]
N#Cc1cncn1CC(O)(c1cc(F)c(F)c(Cl)c1)C1(F)CC1 (centres unmarked) [I-476]	2.54^[a]
N#Cc1cncn1CC(O)(c1cc(Cl)c(F)c(Cl)c1)C1(F)CC1 (centres unmarked) [I-477]	2.74^[a]
N#Cc1cncn1CC(O)(c1ccc(F)cc1F)C1CCCC1 (centres unmarked) [I-478]	2.78^[a]
N#Cc1cncn1CC(O)(c1ccc(F)cc1Br)C1CCCCC1 (centres unmarked) [I-479]	3.46^[a]
N#Cc1cncn1CC(O)(c1ccc(F)cc1F)C1CCCCC1 (centres unmarked) [I-481]	3.05^[a]
N#Cc1cncn1CC(O)(c1ccc(Cl)cc1F)C1CCCCC1 (centres unmarked) [I-482]	3.42^[a]
CC(C)(C)C(O)(Cn1cncc1C#N)c1ccc(F)c(F)c1 (centres unmarked) [I-483]	2.66^[a]

Compound	LogP
NC(=S)c1cncn1CC(O)(CC1CC1)c1ccc(F)cc1F (centres unmarked) [I-484]	1.53^[a]
N#Cc1cncn1CC(O)(CC1CC1)c1ccc(F)c(Cl)c1 (centres unmarked) [I-485]	2.52^[a]
N#Cc1cncn1CC(O)(CC1CC1)c1ccc(Cl)c(F)c1 (centres unmarked) [I-486]	2.56^[a]
N#Cc1cncn1CC(O)(c1ccc(Cl)c(Cl)c1)C1(F)CC1 (centres unmarked) [I-487]	2.51^[a]
N#Cc1cncn1CC(O)(CC1CC1)c1ccc(Cl)c(Cl)c1 (centres unmarked) [I-488]	2.78^[a]
N#Cc1cncn1CC(O)(CC1CC1)c1ccc(F)c(F)c1 (centres unmarked) [I-489]	2.30^[a]
CC(C)(C)C(O)(Cn1cncc1C#N)c1cc(Br)cc(Br)c1 (centres unmarked) [I-490]	3.39^[a]
CC(C)(C)C(O)(Cn1cncc1C#N)c1cc(F)c(Cl)c(F)c1 (centres unmarked) [I-491]	3.01^[a]
N#Cc1cncn1CC(O)(CC1CC1)c1cc(F)c(F)c(Cl)c1 (centres unmarked) [I-492]	2.71^[a]
N#Cc1cncn1CC(O)(CC1CC1)c1cc(Cl)c(F)c(Cl)c1 (centres unmarked) [I-493]	2.95^[a]
N#Cc1cncn1CC(O)(CC1CC1)c1cc(F)c(F)c(Br)c1 (centres unmarked) [I-494]	2.74^[a]
CC(C)(C)C(O)(Cn1cncc1C#N)c1cc(F)cc(Cl)c1 (centres unmarked) [I-495]	2.88^[a]
N#Cc1cncn1CC(O)(CC1CC1)c1ccc(F)c(Br)c1 (centres unmarked) [I-496]	2.56^[a]
N#Cc1cncn1CC(O)(CC1CC1)c1cc(F)cc(Cl)c1 (centres unmarked) [I-497]	2.54^[a]
N#Cc1cncn1CC(O)(CC1CC1)c1cc(Br)cc(Br)c1 (centres unmarked) [I-498]	2.99^[a]
N#Cc1cncn1CC(O)(CC1CC1)c1cc(F)c(Cl)c(F)c1 (centres unmarked) [I-499]	2.73^[a]
N#Cc1cncn1CC(O)(c1cc(F)c(F)c(F)c1)C1(F)CC1 (centres unmarked) [I-500]	2.34^[a]
N#Cc1cncn1CC(O)(CC1CC1)c1cc(F)c(F)c(F)c1 (centres unmarked) [I-501]	2.51^[a]
N#Cc1cncn1CC(O)(CC1CC1)c1cc(F)cc(F)c1 (centres unmarked) [I-502]	2.29^[a]
N#Cc1cncn1CC(O)(CC1CC1)c1cc(Cl)cc(Cl)c1 (centres unmarked) [I-503]	2.28^[a]
N#Cc1cncn1CC(O)(CC1CC1)C1(F)CC1 (centres unmarked) [I-504]	1.99^[a]
NC(=S)c1cncn1CC(O)(c1ccc(Cl)cc1Br)C1(F)CC1 (centres unmarked) [I-505]	1.92^[a]
Cc1cc(C(O)(Cn2cncc2C#N)C2(F)CC2)c(F)cc1Cl (centres unmarked) [I-507]	2.66^[a]
COc1cc(C(O)(Cn2cncc2C#N)C2(F)CC2)c(F)cc1Cl (centres unmarked) [I-508]	2.34^[a]
CC(C)(C)C(O)(Cn1cncc1C#N)c1ccc(F)c(Br)c1 (centres unmarked) [I-509]	2.97^[a]

Compound	LogP
N#Cc1cncn1CC(O)(CC1CC1)c1cnc(Cl)cc1Cl (centres unmarked) [I-510]	2.07^[a]
N#Cc1cncn1CC(O)(CC1CC1)c1c(F)cc(F)cc1F (centres unmarked) [I-511]	2.34^[a]
N#Cc1cncn1CC(O)(CC1CC1)c1c(F)cc(Cl)cc1F (centres unmarked) [I-512]	2.67^[a]
N#Cc1cncn1CC(O)(CC1CC1)c1c(F)cccc1F (centres unmarked) [I-513]	2.18^[a]
N#Cc1cncn1CC(O)(CC1CC1)c1cc(F)c(F)cc1F (centres unmarked) [I-514]	2.36^[a]
N#Cc1cncn1CC(O)(CC1CC1)c1cc(F)ccc1F (centres unmarked) [I-515]	2.18^[a]
N#Cc1cncn1CC(O)(CC1CC1)c1cc(Cl)ccc1F (centres unmarked) [I-516]	2.43^[a]
N#Cc1cncn1CC(O)(CC1CC1)c1cccc(F)c1F (centres unmarked) [I-517]	2.20^[a]
N#Cc1cncn1CC(O)(c1c(F)cc(F)cc1F)C1(F)CC1 (centres unmarked) [I-518]	2.07^[a]
N#Cc1cncn1CC(O)(c1c(F)cc(Cl)cc1F)C1(F)CC1 (centres unmarked) [I-519]	2.36^[a]
N#Cc1cncn1CC(O)(c1c(F)cccc1F)C1(F)CC1 (centres unmarked) [I-520]	1.94^[a]
N#Cc1cncn1CC(O)(c1cc(F)c(F)cc1F)C1(F)CC1 (centres unmarked) [I-521]	2.18^[a]
N#Cc1cncn1CC(O)(c1cc(Cl)ccc1F)C1(F)CC1 (centres unmarked) [I-522]	2.25^[a]
N#Cc1cncn1CC(O)(c1cc(F)ccc1F)C1(F)CC1 (centres unmarked) [I-523]	2.02^[a]
N#Cc1cncn1CC(O)(c1cccc(F)c1F)C1(F)CC1 (centres unmarked) [I-524]	2.02^[a]
N#Cc1cncn1CC(O)(c1cc(F)c(Cl)cc1Br)C1(F)CC1 (centres unmarked) [I-525]	2.65^[a]
N#Cc1cncn1CC(O)(c1cnc(Cl)cc1Cl)C1(F)CC1 (centres unmarked) [I-526]	1.90^[a]
COc1c(Cl)ccc(C(O)(Cn2cncc2C#N)C2(F)CC2)c1F (centres unmarked) [I-527]	2.36^[a]
CC(C)(C)C(O)(Cn1cncc1C#N)c1ccc(Cl)cn1 (centres unmarked) [I-528]	2.73^[a]
N#Cc1cncn1CC(O)(CC1CC1)c1cc(Cl)c(Cl)c(Cl)c1 (centres unmarked) [I-529]	3.22^[a]
N#Cc1cncn1CC(O)(CC1CC1)c1cc(F)c(Cl)c(Cl)c1 (centres unmarked) [I-530]	2.97^[a]
N#Cc1cncn1CC(O)(CC1CC1)c1cc(Cl)cc(Br)c1 (centres unmarked) [I-531]	2.93^[a]
N#Cc1cncn1CC(O)(CC1CC1)c1cc(F)cc(Br)c1 (centres unmarked) [I-532]	2.65^[a]
N#Cc1cncn1CC(O)(CC1CC1)c1ccc(Cl)c(Br)c1 (centres unmarked) [I-533]	2.86^[a]
N#Cc1cncn1CC(O)(c1cc(Cl)c(Cl)c(Cl)c1)C1(F)CC1 (centres unmarked) [I-534]	3.03^[a]

Compound	LogP
N#Cc1cncn1CC(O)(c1cc(F)c(Cl)c(Cl)c1)C1(F)CC1 (centres unmarked) [I-535]	2.78^[a]
N#Cc1cncn1CC(O)(c1cc(Cl)cc(Br)c1)C1(F)CC1 (centres unmarked) [I-536]	2.76^[a]
N#Cc1cncn1CC(O)(c1cc(F)cc(Br)c1)C1(F)CC1 (centres unmarked) [I-537]	2.51^[a]
N#Cc1cncn1CC(O)(c1ccc(Cl)c(Br)c1)C1(F)CC1 (centres unmarked) [I-538]	2.71^[a]
N#Cc1cncn1CC(O)(C#CCC1CCCCC1)C1(F)CC1 (centres unmarked) [I-539]	3.11^[a]
CC(C)CC#CC(O)(Cn1cncc1C#N)C1(F)CC1 (centres unmarked) [I-540]	2.25^[a]
CC(C)(C)C(O)(C#CCC1CCCCC1)Cn1cncc1C#N (centres unmarked) [I-541]	3.72^[a]
N#Cc1cncn1CC(O)(C#CC1CCCCC1)C1(F)CC1 (centres unmarked) [I-543]	2.64^[a]
CC(C)(C)C(O)(Cn1cncc1C#N)c1cc(F)c(F)c(Cl)c1 (centres unmarked) [I-544]	3.07^[a]
CC(C)(C)C(O)(Cn1cncc1C#N)c1cc(F)c(Cl)c(Cl)c1 (centres unmarked) [I-545]	3.31^[a]
CC(C)(C)C(O)(Cn1cncc1C#N)c1cc(Cl)c(Cl)c(Cl)c1 (centres unmarked) [I-546]	3.59^[a]
N#Cc1cncn1CC(O)(c1c(F)cc(F)cc1Br)C1(F)CC1 (centres unmarked) [I-547]	2.27^[a]
COc1ccc(C(O)(CC2CC2)Cn2cncc2C#N)c(Cl)n1 (centres unmarked) [I-548]	2.10^[a]
COc1ccc(C(O)(Cn2cncc2C#N)C2(F)CC2)c(Cl)n1 (centres unmarked) [I-549]	1.99^[a]
N#Cc1cncn1CC(O)(c1ccc(F)nc1F)C1(Cl)CC1 (centres unmarked) [I-550]	1.98^[a]
N#Cc1cncn1CC(O)(c1ccc(F)nc1F)C1(F)CC1 (centres unmarked) [I-551]	1.79^[a]
N#Cc1cncn1CC(O)(c1ccc(Cl)nc1F)C1(F)CC1 (centres unmarked) [I-552]	1.96^[a]
N#Cc1cncn1CC(O)(c1cccc(Cl)c1F)C1(Cl)CC1 (centres unmarked) [I-553]	2.40^[a]
N#Cc1cncn1CC(O)(c1ccc(Cl)nc1F)C1(Cl)CC1 (centres unmarked) [I-554]	2.15^[a]
N#Cc1cncn1CC(O)(c1cccc(F)c1Cl)C1(F)CC1 (centres unmarked) [I-555]	2.12^[a]
N#Cc1cncn1CC(O)(c1ccc(Cl)nc1Br)C1(F)CC1 (centres unmarked) [I-556]	1.99^[a]
N#Cc1cncn1CC(O)(c1cccc(F)c1Cl)C1(Cl)CC1 (centres unmarked) [I-557]	2.25^[a]
N#Cc1cncn1CC(O)(c1cccc(Cl)c1F)C1(F)CC1 (centres unmarked) [I-558]	2.21^[a]
